# Experimental data taken from publication PMC11378297, “Discovery and Profiling of New Multimodal Phenylglycinamide Derivatives as Potent Antiseizure and Antinociceptive Drug Candidates” (ACS Chemical Neuroscience, 2024).
# Key:
# [1] = tested on: PTZ-induced kindling, mice; assay: PTZ-induced kindling model; type: in vivo, mouse
# Procedure: We investigated the impact of lead compound (R)-32 on PTZ-induced kindling in mice to further assess its antiseizure potential (Figure 3). […] The PTZ-induced kindling model is widely recognized as a useful method to induce chronic increase in susceptibility to epileptic seizures.
# Figure 3 Effect of repeated treatment with (R)-32 in PTZ-induced kindling model in mice. […] Data are presented as means of seizure severity (n = 10–15 animals). Statistical significance was evaluated by a mixed effects model for repeated measures followed by Tukey’s post hoc test: **p < 0.01, […] vs control group (GraphPad Prism 8.4.3).
# The procedure was performed as described in detail in our previous studies.[88],[89] […] Seizures were induced three times a week by i.p. administration of PTZ at a subconvulsive dose of 40 mg/kg. […] The seizure severity was scored using the modified Racine’s scale. […] The locomotor activity test, the elevated plus maze test, and the FST were performed 24 h after the last PTZ injection, according to the methods described in detail elsewhere. After completion of behavioral tests, animals were sacrificed. Hippocampi and cortices were dissected from the brains, frozen, and stored at −80 °C until assay. Following each PTZ injection, the mean seizure severity scores were determined for each experimental group. A mixed effects model for repeated measurements was used for analysis, along with Tukey’s post hoc test. The percentage of fully kindled mice was compared using Fisher’s exact probability test.
# [2] = tested on: mature-BDNF (mBDNF) expression; assay: mBDNF expression in hippocampus and cortex of PTZ-kindled mice (Western blot); type: in vivo, mouse; details: 80 mg/kg repeated, p < 0.01 vs PTZ kindling control
# Source text: However, there are also few reports showing opposite findings.[51],[52] […] No changes in the expression of the nerve growth factor (NGF) were observed (Figure 6D–F).
# Figure 6 Changes in mature-BDNF (mBDNF) expression in hippocampus (A) and cortex (C) and in proNGF expression in hippocampus (D) and cortex (F) with representative immunoblots, together with total protein amount visualized by the stain-free technique (B,E). Data are shown as means of relative expressions + SD (n = 8). Statistical significance was evaluated by one-way ANOVA followed by Tukey’s post hoc test: **p < 0.01 (GraphPad Prism 8.4.3).
# The Western Blot method was used to assess the expression of proNGF and mBDNF in the mouse brain and hippocampal tissues. Using a bead homogenizer (Bead Ruptor Elite, Omni International, USA), the cortical and hippocampal regions of the mouse brain were weighted and homogenized at a ratio of 9 μL/mg in 2% SDS supplemented with a cocktail of protease (Thermo Scientific, Walthman, MA, USA) and phosphatase inhibitors (Sigma-Aldrich, St. Louis, MO, USA). Samples were then centrifuged at 10,000g for 10 min at 4 °C after being denatured for 10 min at 95 °C. […] One-way ANOVA with Tukey’s post hoc test was utilized to examine changes in the relative expression of the proteins that were evaluated.
smiles,measurement,setting,value
"CC(=O)N[C@@H](C(=O)N1CCN(c2cccc(OC(F)(F)F)c2)CC1)c1ccccc1 [(R)-32, (R)-N-(2-Oxo-1-phenyl-2-(4-(3-(trifluoromethoxy)phenyl)piperazin-1-yl)ethyl)acetamide]",effect on kindling development,[1]; 20 mg/kg i.p. repeatedly every 24 h,did not significantly affect kindling development
same,effect on kindling development,[1]; 40 mg/kg i.p. repeatedly every 24 h,did not significantly affect kindling development
same,effect on kindling progression,"[1]; 80 mg/kg i.p. repeatedly, p < 0.01 after 19th PTZ injection",slightly suppressed kindling progression
same,average seizure severity score after the first PTZ injection,"[1]; 80 mg/kg, mean ± SD",0.87 ± 0.35
same,average seizure severity score after the last PTZ injection,"[1]; 80 mg/kg, mean ± SD",2.65 ± 1.28
same,mBDNF protein expression in the hippocampus (PTZ kindling-induced overexpression),[2],reversed the overexpression
